According to patent US7964598B2 (The J. David Gladstone Institutes, priority 1995, dated 2011):

How the values were obtained:
Neuro-2a cells = assay: Binding of DiI-labeled LDL to Neuro-2a cells; assay type: cell-based, mouse; settings: 5 μg/ml of RAP
[1] = system: apoE4 enhancement of Aβ production; assay: Aβ production assay, B103-APP cells incubated with apoE4; assay type: cell-based, rat; settings: RAP 25 nM, preincubated 1 h
Description: Aβ production assay. Stable neuroblastoma B103 cell lines transfected with a wildtype hAPP cDNA construct (B 103-APP) were selected by growing them in Dulbecco's modified Eagle's medium (DMEM) containing 10% fetal calf serum (FBS) and 400 μg/ml G418. A cell line expressing APP at similar levels in mouse brains has been identified by RNase protection assay (RPA) and was used in the studies described below. To determine Aβ production, B103-APP cells were incubated with serum-free minimal essential medium (MEM) containing N2 supplements with or without apoE isoforms for 24 h at 37° C. After incubation, 50 μl of medium was collected and assayed for Aβ levels with an ELISA method. The cells were lysed, and cellular proteins were determined by the Lowry method. AP production was normalized to cellular protein.
Cell Culture. Rat neuroblastoma B103 cells stably expressing human wildtype APP (hAPP695wt) (Xu et al. ((1999) Proc. Natl. Acad. Sci. USA 96:7547-7552; Esposito, et al. (2004) J. Neurochem. 91:1260-1274) were generated in Dr. Lennart Mucke's laboratory at the Gladstone Institute of Neurological Disease and maintained in Dulbecco's modified Eagle's medium (DMEM) (GIBCO, Grand Island, N.Y.) containing 400 μg/ml G418, 10% fetal bovine serum, and 5% horse serum at 37° C. Twenty-four hours after plating into 48-well plates (1×10^5 cells per well), cells were washed twice with serum-free DMEM and cultured for another 24 h in DMEM containing 1% N-2 supplement (GIBCO) to induce differentiation. The cells were treated with either β-VLDL (25 μg/ml cholesterol), recombinant human apoE isoform-enriched β-VLDL (7.5 μg/ml apoE and 25 μg/ml cholesterol), or recombinant human apoE (7.5 μg/ml apoE) in fresh DMEM containing 1% N-2 supplement for an additional 24 h. In some experiments, RAP (25 nM or 1 μM) was added to the cells 1 h before apoE treatment.
Aβ Assay. Aβ secreted into the medium was detected with a sandwich enzyme-linked immunosorbent assay (ELISA), using mAb 266 as a capturing antibody and 3D6 as a detecting antibody, as described. Johnson-Wood et al. ((1997) Proc. Natl. Acad. Sci. USA 94:1550-1555). Aβ was quantified from a standard curve (Aβ42; Bachem, Torrance, Calif.) and normalized by total cellular protein.

[2] = system: apoE4-expressing Neuro-2a cells; assay: Neurite outgrowth, apoE4-expressing Neuro-2a cells; assay type: cell-based, mouse; settings: in the presence of β-VLDL
Description: Cells were grown in DME/F12 containing 10% FBS and G418 (400 μg/ml). On the day the experiment was initiated, the cells were subcultured into 35 mm plates in DME/F12 with 10% FBS. The cells were allowed to adhere to the plastic plates for 2 hr at 37° C., and then the culture medium was changed to N2 medium with or without increasing concentrations of lipoproteins. After 48 hr at 37° C., the media were replaced with the same medium (with or without lipoproteins), and the incubation was continued for an additional 48 hr. […] Neurons were imaged in fluorescence mode with a confocal laser scanning system (MRC-600, BioRad, Hercules, Calif.), and the images were digitized with an Image-1/AT image analysis system (Universal Images, West Chester, Pa.). The neuronal images were coded before characterization, and the following variables were measured: 1) number of neurites (defined as cell surface projections at least one-half the cell diameter) on each neuron; 2) neurite branching (the number of branch points on each neurite); and 3) neurite extension (the length of the longest neurite, measured from the cell body). Typically, in each experiment the neurites of 20 to 40 neurons per plate were measured and the results preserved as the mean±S.E.M. […]

Substance: RAP: receptor-associated protein, 39-kD glycoprotein, LRP antagonist
- binding of DiI-labeled LDL to the Neuro-2a cells (Neuro-2a cells): did not block
- apoE4 enhancement of Aβ production [1]: abolished the apoE4-induced enhancement of Aβ production
- inhibition of neurite extension seen in the apoE4-expressing cells [2]: blocked the inhibition of neurite extension
